Earlier results in patent publication US6491952B1, “Cholesterol lowering composition” (Triple Crown AB, priority 1998, dated 2002).

Details: daily intake; references 1-5

Structure (SMILES)	cholesterol lowering effect
CC[C@H](CC[C@@H](C)[C@H]1CC[C@H]2[C@@H]3CC[C@H]4C[C@@H](O)CC[C@]4(C)[C@H]3CC[C@]12C)C(C)C [β-sitostanol]	cholesterol lowering effect
CC[C@H](CC[C@@H](C)[C@H]1CC[C@H]2[C@@H]3CC=C4C[C@@H](O)CC[C@]4(C)[C@H]3CC[C@]12C)C(C)C [β-sitosterol]	cholesterol lowering effect
